These results are taken from ChEMBL document CHEMBL1697781, “Assessment of the health effects of chemicals in humans: II. Construction of an adverse effects database for QSAR modeling” (Curr Drug Discov Technol, 2004).

Holding throughout (settings): human
The subject of series [1] is Hepatotoxicity. As to the kind of experiment: FDA HLAED, gamma-glutamyl transferase (GGT) increase.
The test system of series [2] is Hepatotoxicity. As to the kind of experiment: FDA HLAED, lactate dehydrogenase (LDH) increase.
In series [3] the test system is Hepatotoxicity. As to the kind of experiment: FDA HLAED, liver enzyme composite activity.
In series [4] the test system is Hepatotoxicity. As to the kind of experiment: FDA HLAED, serum glutamic pyruvic transaminase (SGPT) increase.
Series [5] deals with Hepatotoxicity. In words: FDA HLAED, alkaline phosphatase increase.
In series [6] the test system is Hepatotoxicity. As to the kind of experiment: FDA HLAED, serum glutamic oxaloacetic transaminase (SGOT) increase.

Each structure is given as a SMILES string.
Throughout, for GGT Increase - Index Value: reference of the scale not given here.
Throughout, for LDH Increase - Index Value: reference of the scale not given here.

With `CC(C)n1c(/C=C/C(O)CC(O)CC(=O)O)c(-c2ccc(F)cc2)c2ccccc21` (stereo unspecified) [FLUVASTATIN], in the series with Hepatotoxicity [1], the “GGT Increase - Activity Score” value was “Inactive”, the “GGT Increase - Index Value” was 0.7 and the “GGT Increase - Number of Reports” value is recorded as “>= 4”. Besides, in the series on Hepatotoxicity [2], the “LDH Increase - Activity Score” value is “Inactive”, the “LDH Increase - Index Value” is 0 and the “LDH Increase - Number of Reports” value is recorded as below 4. In the series with Hepatotoxicity [3] (Liver), the “Composite Activity - Active” value is given as 0, the “Composite Activity - Marginal” value worked out at 0 and the “Composite Activity - Score” value is on record as “Inactive”. In addition, in the series on Hepatotoxicity [4], the “SGPT Increase - Activity Score” value is “Inactive”, the “SGPT Increase - Index Value” was 1 and the “SGPT Increase - Number of Reports” value is “>= 4”. Also, in the series with Hepatotoxicity [5], the “Alkaline Phosphatase Increase - Activity Score” value was “Inactive”, the “Alkaline Phosphatase Increase - Index Value” is 0.5 and the “Alkaline Phosphatase Increase - Number of Reports” value is listed as “>= 4”. Also, in the series with Hepatotoxicity [6], the “SGOT Increase - Activity Score” value was “Inactive”, the “SGOT Increase - Index Value” is 1 and the “SGOT Increase - Number of Reports” value is on record as “>= 4”.
As for `Cc1nccn1CC1CCc2c(c3ccccc3n2C)C1=O` (stereo unspecified) [ONDANSETRON], in the series with Hepatotoxicity [1], the “GGT Increase - Activity Score” value is on record as “Inactive”, the “GGT Increase - Index Value” is on record as 0 and the “GGT Increase - Number of Reports” value was below 4. In addition, in the series with Hepatotoxicity [2], the “LDH Increase - Activity Score” value is on record as “Inactive”, the “LDH Increase - Index Value” is 0.9 and the “LDH Increase - Number of Reports” value is listed as “>= 4”. In the series on Hepatotoxicity [3], the “Composite Activity - Active” value was determined as 0, the “Composite Activity - Marginal” value is 0 and the “Composite Activity - Score” value is listed as “Inactive”. For the same compound, in the series with Hepatotoxicity [4], the “SGPT Increase - Activity Score” value is reported as “Inactive”, the “SGPT Increase - Index Value” was 1.3 and the “SGPT Increase - Number of Reports” value is “>= 4”. Moreover, in the series on Hepatotoxicity [5], the “Alkaline Phosphatase Increase - Activity Score” value is listed as “Inactive”, the “Alkaline Phosphatase Increase - Index Value” was found to be 0.5 and the “Alkaline Phosphatase Increase - Number of Reports” value is listed as “>= 4”. Moreover, in the series with Hepatotoxicity [6], the “SGOT Increase - Activity Score” value is on record as “Inactive”, the “SGOT Increase - Index Value” was 1.1 and the “SGOT Increase - Number of Reports” value was “>= 4”.
For the compound `CC(=O)Oc1c(C)cc(OCC(O)CNC(C)C)c(C)c1C` (stereo unspecified) [METIPRANOLOL], in the series with Hepatotoxicity [1], the “GGT Increase - Activity Score” value is “Inactive”, the “GGT Increase - Index Value” came out at 0 and the “GGT Increase - Number of Reports” value was below 4. Besides, in the series with Hepatotoxicity [2], the “LDH Increase - Activity Score” value was “Inactive”, the “LDH Increase - Index Value” is 0 and the “LDH Increase - Number of Reports” value is given as below 4. Further, in the series on Hepatotoxicity [3], the “Composite Activity - Active” value was 0, the “Composite Activity - Marginal” value is given as 0 and the “Composite Activity - Score” value is listed as “Inactive”. In the series on Hepatotoxicity [4], the “SGPT Increase - Activity Score” value is on record as “Inactive”, the “SGPT Increase - Index Value” is reported as 0 and the “SGPT Increase - Number of Reports” value is below 4. In the series with Hepatotoxicity [5], the “Alkaline Phosphatase Increase - Activity Score” value is reported as “Inactive”, the “Alkaline Phosphatase Increase - Index Value” came to 0 and the “Alkaline Phosphatase Increase - Number of Reports” value is below 4. Also, in the series with Hepatotoxicity [6], the “SGOT Increase - Activity Score” value was “Inactive”, the “SGOT Increase - Index Value” was 0 and the “SGOT Increase - Number of Reports” value is below 4.
Take `CCOC(=O)c1ccc(C#Cc2ccc3c(c2)C(C)(C)CCS3)nc1` [TAZAROTENE]: in the series on Hepatotoxicity [1], the “GGT Increase - Activity Score” value is recorded as “Inactive”, the “GGT Increase - Index Value” was determined as 0 and the “GGT Increase - Number of Reports” value is given as below 4. For the same compound, in the series on Hepatotoxicity [2], the “LDH Increase - Activity Score” value was “Inactive”, the “LDH Increase - Index Value” worked out at 0 and the “LDH Increase - Number of Reports” value is on record as below 4. In the series with Hepatotoxicity [3], the “Composite Activity - Active” value is listed as 0, the “Composite Activity - Marginal” value is on record as 0 and the “Composite Activity - Score” value is reported as “Inactive”. Also, in the series with Hepatotoxicity [4], the “SGPT Increase - Activity Score” value was “Inactive”, the “SGPT Increase - Index Value” was found to be 0 and the “SGPT Increase - Number of Reports” value is recorded as below 4. In addition, in the series with Hepatotoxicity [5], the “Alkaline Phosphatase Increase - Activity Score” value was “Inactive”, the “Alkaline Phosphatase Increase - Index Value” is reported as 0 and the “Alkaline Phosphatase Increase - Number of Reports” value was below 4. In the series with Hepatotoxicity [6], the “SGOT Increase - Activity Score” value is “Inactive”, the “SGOT Increase - Index Value” was determined as 0 and the “SGOT Increase - Number of Reports” value was below 4.
With `COC(=O)C1=C(C)NC(C)=C(C(=O)OCC(C)C)C1c1ccccc1[N+](=O)[O-]` (stereo unspecified) [NISOLDIPINE], in the series on Hepatotoxicity [1], the “GGT Increase - Activity Score” value was “Inactive”, the “GGT Increase - Index Value” turned out to be 0 and the “GGT Increase - Number of Reports” value is recorded as below 4. Besides, in the series with Hepatotoxicity [2], the “LDH Increase - Activity Score” value is “Inactive”, the “LDH Increase - Index Value” was 0 and the “LDH Increase - Number of Reports” value was below 4. In the series on Hepatotoxicity [3], the “Composite Activity - Active” value is listed as 0, the “Composite Activity - Marginal” value amounted to 0 and the “Composite Activity - Score” value is reported as “Inactive”. In the series on Hepatotoxicity [4], the “SGPT Increase - Activity Score” value is given as “Inactive”, the “SGPT Increase - Index Value” stood at 1.6 and the “SGPT Increase - Number of Reports” value was below 4. For the same compound, in the series with Hepatotoxicity [5], the “Alkaline Phosphatase Increase - Activity Score” value was “Inactive”, the “Alkaline Phosphatase Increase - Index Value” is recorded as 0 and the “Alkaline Phosphatase Increase - Number of Reports” value is listed as below 4. For the same compound, in the series on Hepatotoxicity [6], the “SGOT Increase - Activity Score” value is reported as “Inactive”, the “SGOT Increase - Index Value” is 3.2 and the “SGOT Increase - Number of Reports” value is reported as below 4.
In the case of `CC(C)(C)NC(=O)[C@@H]1C[C@@H]2CCCC[C@@H]2CN1C[C@@H](O)[C@H](Cc1ccccc1)NC(=O)[C@H](CC(N)=O)NC(=O)c1ccc2ccccc2n1`, in the series with Hepatotoxicity [1], the “GGT Increase - Activity Score” value is listed as “Inactive”, the “GGT Increase - Index Value” was 0 and the “GGT Increase - Number of Reports” value is listed as below 4. Moreover, in the series with Hepatotoxicity [2], the “LDH Increase - Activity Score” value was “Inactive”, the “LDH Increase - Index Value” is given as 0 and the “LDH Increase - Number of Reports” value was below 4. For the same compound, in the series on Hepatotoxicity [3] (Liver), the “Composite Activity - Active” value was 0, the “Composite Activity - Marginal” value is recorded as 0 and the “Composite Activity - Score” value was “Inactive”. Also, in the series with Hepatotoxicity [4], the “SGPT Increase - Activity Score” value is given as “Inactive”, the “SGPT Increase - Index Value” is reported as 0 and the “SGPT Increase - Number of Reports” value is given as below 4. In the series with Hepatotoxicity [5], the “Alkaline Phosphatase Increase - Activity Score” value is reported as “Inactive”, the “Alkaline Phosphatase Increase - Index Value” came to 0 and the “Alkaline Phosphatase Increase - Number of Reports” value is below 4. Besides, in the series with Hepatotoxicity [6], the “SGOT Increase - Activity Score” value is listed as “Inactive”, the “SGOT Increase - Index Value” stood at 0 and the “SGOT Increase - Number of Reports” value is below 4.
With `CN1CCCC(n2nc(Cc3ccc(Cl)cc3)c3ccccc3c2=O)CC1` (stereo unspecified) [AZELASTINE], in the series with Hepatotoxicity [1], the “GGT Increase - Activity Score” value was “Inactive”, the “GGT Increase - Index Value” was determined as 0 and the “GGT Increase - Number of Reports” value is listed as below 4. Moreover, in the series on Hepatotoxicity [2], the “LDH Increase - Activity Score” value was “Inactive”, the “LDH Increase - Index Value” stood at 0 and the “LDH Increase - Number of Reports” value is on record as below 4. Besides, in the series with Hepatotoxicity [3], the “Composite Activity - Active” value was 0, the “Composite Activity - Marginal” value is given as 0 and the “Composite Activity - Score” value is reported as “Inactive”. Moreover, in the series with Hepatotoxicity [4], the “SGPT Increase - Activity Score” value is recorded as “Inactive”, the “SGPT Increase - Index Value” is 0 and the “SGPT Increase - Number of Reports” value was below 4. In the series with Hepatotoxicity [5], the “Alkaline Phosphatase Increase - Activity Score” value is “Inactive”, the “Alkaline Phosphatase Increase - Index Value” was 0 and the “Alkaline Phosphatase Increase - Number of Reports” value is on record as below 4. Further, in the series with Hepatotoxicity [6], the “SGOT Increase - Activity Score” value was “Inactive”, the “SGOT Increase - Index Value” is recorded as 0 and the “SGOT Increase - Number of Reports” value was below 4.
